Molecules are shown by their SMILES. Read-outs that look alike come from different tables or passages of the source.

The inhibition is the change of the read-out against control, counted positive when it falls.

Experiment [1] addresses T1, Cp149 (truncated form of a HBV core protein) (Hepatitis B virus genotype D subtype ayw, UniProt P03146).
T1 construct: Cp149 (amino acids 1-149) is a truncated form of a HBV core protein; histidine tag (cleaved yes); made in house; host or cells: Escherichia coli BL21(DE3)
In words: Protein based assay: immunoblot analysis of in vitro HBV capsid assembly. The format is biochemical. The settings on record: for inhibition at 10 µM: read-out: Protein based assay (% inhibition, 10 μM); for inhibition at 0.1 µM: read-out: Protein based assay (% inhibition), 0.1 μM; for inhibition at 1 µM: read-out: Protein based assay (% inhibition), 1 μM. As for the experimental part: Cp149 (amino acids 1-149) is a truncated form of a HBV core protein. It was expressed in Escherichia coli, and the expressed protein was purified. The recombinant Cp149 was expressed in E. coli BL21(DE3) cells cultured in LB medium at 37° C. When the culture reached an OD600 of 0.7 to 0.8, expression of the culture was induced with 0.5 mM isopropyl-β-d-thiogalactopyranoside and the culture was cooled to 16° C. After 16 hours, the cells were harvested, flash-frozen in liquid nitrogen, and stored at −80° C. To purify Cp149, thawed cells were resuspended in lysis buffer (20 mM Tris-HCl pH 9.0, 200 mM NaCl, 10 mM imidazole, 10 μg per mL DNaseI, 1 mM phenylmethylsulfonyl fluoride), and treated with ultrasonic waves. The supernatant was loaded onto Ni-NTA affinity resin. Proteins were eluted using a 20 mM to 500 mM imidazole gradient dissolved in lysis buffer. After removing the histidine tag with thrombin, the protein was further purified by HiTrap Q anion exchange chromatography (17115401, GE Healthcare).
To determine the effect on in vitro Cp149 assembly, compounds of the present invention were added to the Cp149-containing suspension. The final concentration of Cp149 was 1 mg per mL, and the compounds of the present invention were added at concentrations of 0.1 to 10 μM. The suspension was mixed with reaction buffer (150 mM HEPES, pH 7.5, 15 mM NaCl) added in a 2:1 ratio. In vitro assembly was performed at 37° C. for 1 hour, and HBV capsid was detected by immunoblot analysis using an anti-HBV core antibody (1:2000, B0586, Dako).

In a further experiment the test system is HBV DNA. In words: Quantitative PCR for measuring HBV DNA in cells (HBV DNA quantification). It counts as cell-based. As for the experimental part:
After treating cells with the indicated compounds, HBV DNA secreted into the medium and intracellular HBV DNA were extracted, purified, and quantified by quantitative PCR. To isolate the secreted HBV DNA, the culture medium was recovered and centrifuged at 15,000×g to remove debris. The medium was diluted 1:1 with phosphate-buffered saline (PBS), and 1 M NaOH solution was added to a final concentration of 0.1 M. The mixture was incubated at 37° C. for 1 hour. The protein was denatured by adding 2M Tris-HCl solution (pH 7.5) to a final concentration of 0.2 M and incubating at 98° C. for 5 minutes. The protein precipitation was removed by centrifugation at 15,000×g, and the supernatant was subjected to PCR with HBV DNA primer and probe sets:
Forward: 5′-[…]-3′, Reverse: 5′-[…]-3′, Probe: 5′-[…]-3′.

Setting [2] is: Hepatitis B virus, read-out: HBV DNA quantification (IC50 μM).
Setting [3] is: Hepatitis B virus; read-out: HBV DNA quantification (IC50 μM).

T1 sequence (P03146 1-149): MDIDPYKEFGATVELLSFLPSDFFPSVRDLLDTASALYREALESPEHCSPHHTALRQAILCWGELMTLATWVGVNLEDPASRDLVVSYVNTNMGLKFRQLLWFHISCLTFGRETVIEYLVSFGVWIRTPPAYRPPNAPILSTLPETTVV

In the case of `COc1ncccc1C(=O)NCCNc1cc(Nc2ccc(I)cc2)nc(SC)n1` [Compound 8e, N-(2-(6-(4-iodophenylamino)-2-(methylthio)pyrimidin-4-ylamino)ethyl)-2-methoxynicotinamide], the inhibition at 10 µM in experiment [1] amounted to 43%.

Regarding `CS(=O)(=O)c1nc(Nc2ccc(F)c(Cl)c2)cc(N2CCNCC2)n1` [Compound 26c, N-(3-chloro-4-fluorophenyl)-2-(methylsulfonyl)-6-(piperazin-1-yl)pyrimidin-4-amine], the IC50 in the experiment on HBV DNA (setting [2]) came out at 0.189 µM. In experiment [1], the inhibition at 0.1 µM turned out to be 47% and the inhibition at 1 µM worked out at 90%.

For `CS(=O)(=O)c1nc(Nc2cc(F)c(F)c(F)c2)cc(Nc2cc(F)c(F)c(F)c2)n1` [Compound 18b, 2-(methylsulfonyl)-N^4,N^6-bis(3,4,5-trifluorophenyl)pyrimidine-4,6-diamine], the IC50 in the experiment with HBV DNA (setting [3]) was determined as 1.02 µM. Moreover, the inhibition at 10 µM in experiment [1] stood at 69%.

With `CS(=O)(=O)c1nc(Nc2ccc(F)c(Cl)c2)cc(N2CCC(N)CC2)n1` [Compound 26i, 6-(4-aminopiperidin-1-yl)-N-(3-chloro-4-fluorophenyl)-2-(methylsulfonyl)pyrimidin-4-amine], the IC50 in the experiment on HBV DNA (setting [2]) came to 0.181 µM. For the same molecule, in experiment [1], the inhibition at 0.1 µM came to 52% and the inhibition at 1 µM came out at 99%.

`COc1ncccc1C(=O)NCCNc1cc(Nc2ccc(F)c(F)c2)nc([S+](C)[O-])n1` (stereo not shown) [Compound 9f, N-(2-(6-(3,4-difluorophenylamino)-2-(methylsulfinyl)pyrimidin-4-ylamino)ethyl)-2-methoxynicotinamide]: in the experiment with HBV DNA (setting [2]), the IC50 is greater than 10 µM. Further, in experiment [1], the inhibition at 10 µM was 38%.

With `CS(=O)(=O)c1nc(Nc2ccc(F)cc2)cc(Nc2ccc(F)cc2)n1` [Compound 18a, N^4,N^6-bis(4-fluorophenyl)-2-(methylsulfonyl)pyrimidine-4,6-diamine], the IC50 in the experiment with HBV DNA (setting [3]) stood at 6.4 µM. Moreover, in experiment [1], the inhibition at 10 µM stood at 49%.

In the case of `COc1ncccc1C(=O)N1CCN(c2cc(Nc3ccc(N4CCOCC4)cc3)nc(SC)n2)CC1` [Compound 13, (2-methoxypyridin-3-yl)(4-(2-(methylthio)-6-(4-morpholinophenylamino)pyrimidin-4-yl)piperazin-1-yl)methanone], in the experiment with HBV DNA (setting [3]), the IC50 is greater than 10 µM. Also, in experiment [1], the inhibition at 10 µM worked out at 31%.

For the molecule `CC(C)(C)OC(=O)N1CCN(c2cc(Nc3ccc(F)cc3)nc(S(C)(=O)=O)n2)CC1` [Compound 22a, tert-butyl 4-(6-(4-fluorophenylamino)-2-(methylsulfonyl)pyrimidin-4-yl)piperazine-1-carboxylate], the IC50 in the experiment with HBV DNA (setting [2]) amounted to 0.831 µM. Also, the inhibition at 10 µM in experiment [1] came to 68%.

Regarding `CS(=O)(=O)c1nc(Nc2ccc(F)c(Br)c2)cc(N2CCC(N)CC2)n1` [Compound 26j, 6-(4-aminopiperidin-1-yl)-N-(3-bromo-4-fluorophenyl)-2-(methylsulfonyl)pyrimidin-4-amine], the IC50 in the experiment on HBV DNA (setting [3]) amounted to 0.48 µM. Further, in experiment [1], the inhibition at 0.1 µM came to 10% and the inhibition at 1 µM is 98%.

Turning to `CC(C)(C)OC(=O)N1CCN(c2cc(Nc3ccc(F)c(F)c3)nc(S(C)(=O)=O)n2)CC1` [Compound 22g, tert-butyl 4-(6-(3,4-difluorophenylamino)-2-(methylsulfonyl)pyrimidin-4-yl)piperazine-1-carboxylate], the IC50 with HBV DNA (setting [2]) stood at 0.658 µM. Further, the inhibition at 10 µM in experiment [1] turned out to be 84%.

On to `CSc1nc(Cl)cc(N(Cc2ccc(F)cc2)c2ccc(N3CCOCC3)cc2)n1` [Compound 10a, 6-chloro-N-(4-fluorobenzyl)-2-(methylthio)-N-(4-morpholinophenyl)pyrimidin-4-amine], for which, in the experiment with HBV DNA (setting [2]), the IC50 was greater than 10 µM. Also, the inhibition at 10 µM in experiment [1] came to 58%.

As to `COc1ncccc1C(=O)NCCNc1cc(Nc2ccc(F)cc2Cl)nc(S(C)(=O)=O)n1` [Compound 9i, N-(2-(6-(2-chloro-4-fluorophenylamino)-2-(methylsulfonyl)pyrimidin-4-ylamino)ethyl)-2-methoxynicotinamide], in the experiment on HBV DNA (setting [2]), the IC50 is greater than 10 µM. Besides, the inhibition at 10 µM in experiment [1] came to 43%.

`COc1ncccc1C(=O)NCCNc1cc(Nc2ccc(N3CCOCC3)cc2)nc([S+](C)[O-])n1` (stereo not shown) [Compound 5a, 2-methoxy-N-(2-(2-(methylsulfinyl)-6-(4-morpholinophenylamino)pyrimidin-4-ylamino)ethyl)nicotinamide]: the IC50 in the experiment with HBV DNA (setting [3]) came out at 0.402 µM. In experiment [1], the IC50 came to 5300 nM, the inhibition at 0.1 µM came to 43%, the inhibition at 1 µM worked out at 83% and the inhibition at 10 µM was determined as 95%.

In the case of `C[S+]([O-])c1nc(NCCNC(=O)c2ccc(F)cc2)cc(Nc2ccc(N3CCOCC3)cc2)n1` (stereo not shown) [Compound 5c, 4-fluoro-N-(2-(2-(methylsulfinyl)-6-(4-morpholinophenylamino)pyrimidin-4-ylamino)ethyl)benzamide], the IC50 in the experiment with HBV DNA (setting [3]) was greater than 10 µM. Moreover, the inhibition at 10 µM in experiment [1] worked out at 0%.

In the case of `CS(=O)(=O)c1nc(Nc2cc(F)c(F)c(F)c2)cc(N2CCNCC2)n1` [Compound 26b, 2-(methylsulfonyl)-6-(piperazin-1-yl)-N-(3,4,5-trifluorophenyl)pyrimidin-4-amine], in the experiment with HBV DNA (setting [3]), the IC50 was 0.203 µM. In addition, in experiment [1], the inhibition at 0.1 µM is 39% and the inhibition at 1 µM worked out at 92%.

`COc1ncccc1C(=O)NCCNc1cc(Nc2ccc(F)cc2)nc([S+](C)[O-])n1` (stereo not shown) [Compound 9b, N-(2-(6-(4-fluorophenylamino)-2-(methylsulfinyl)pyrimidin-4-ylamino)ethyl)-2-methoxynicotinamide]: the IC50 in the experiment on HBV DNA (setting [3]) came out at 0.21 µM. Besides, in experiment [1], the inhibition at 0.1 µM came out at 32% and the inhibition at 1 µM stood at 83%.

In the case of `CS(=O)(=O)c1nc(Nc2ccc(F)c(Cl)c2)cc(N2CC3(CNC3)C2)n1` [Compound 29b, N-(3-chloro-4-fluorophenyl)-2-(methylsulfonyl)-6-(2,6-diazaspiro[3.3]heptan-2-yl)pyrimidin-4-amine], the IC50 in the experiment on HBV DNA (setting [2]) came to 0.235 µM.

On to `COc1ncccc1C(=O)NCCNc1cc(Nc2ccccc2)nc(SC)n1` [Compound 8a, 2-methoxy-N-(2-(2-(methylthio)-6-(phenylamino)pyrimidin-4-ylamino)ethyl)nicotinamide], for which the IC50 with HBV DNA (Hepatitis B virus, read-out: HBV DNA quantification) was greater than 10 µM. The inhibition at 10 µM in experiment [1] was found to be 0%.

With `COc1ncccc1C(=O)NCCNc1cc(Nc2ccc(F)cc2)nc(SC)n1` [Compound 8b, N-(2-(6-(4-fluorophenylamino)-2-(methylthio)pyrimidin-4-ylamino)ethyl)-2-methoxynicotinamide], in experiment [1], the inhibition at 10 µM is 74%.

On to `CS(=O)(=O)c1nc(Nc2ccc(F)c(Cl)c2)cc(N2C[C@@H]3C[C@H]2CN3)n1` [Compound 29c, 6-((1S,4S)-2,5-diazabicyclo[2.2.1]heptan-2-yl)-N-(3-chloro-4-fluorophenyl)-2-(methylsulfonyl)pyrimidin-4-amine], for which the IC50 in the experiment on HBV DNA (setting [2]) stood at 0.428 µM.

As for `CS(=O)(=O)c1nc(Nc2ccc(F)c(Cl)c2)cc(N2C[C@@H]3[C@@H](N)[C@@H]3C2)n1` [Compound 29d, (1R,5S,6s)-3-(6-(3-chloro-4-fluorophenylamino)-2-(methylsulfonyl)pyrimidin-4-yl)-3-azabicyclo[3.1.0]hexan-6-amine], in the experiment with HBV DNA (read-out: HBV DNA quantification (IC50 μM)), the IC50 came to 0.769 µM.

For the molecule `CS(=O)(=O)c1nc(Nc2ccc(F)c(Cl)c2)cc(N2C[C@H]3C[C@@H]2CN3)n1` [Compound 29a, 6-((1R,4R)-2,5-diazabicyclo[2.2.1]heptan-2-yl)-N-(3-chloro-4-fluorophenyl)-2-(methylsulfonyl)pyrimidin-4-amine], the IC50 in the experiment on HBV DNA (setting [2]) came to 0.15 µM.

(Values after patent publication US20230399320A1, “NOVEL CAPSID ASSEMBLY INHIBITOR” (Pelemed Co., Ltd., priority 2020, published 2023).)
